Legend:
Format in all cases: cell-based, Chinese hamster
[1] = test system: CHO-SEAP cells; experiment: Long-term culture SEAP titer (SEAP reporter assay); settings: CHO-SEAP cells under constant 5 μM MTX supplementation, 48 passages
Experimental: Cells were cultured in triplicates on 6-well plates. All cells were treated with 5 μM methotrexate (MTX) (MilliporeSigma) for 2 weeks at the beginning of the study (P0-P7) after which only one triplicate per genotype was continued under MTX until the rest of the study. Cells were cultured for 48 passages in total, with 3 passages/week. […]. Protein titer was measured at P0, P7, and P48 using a SEAP reporter assay (Applied Biosystems, ThermoFisher).
To finally investigate whether DNA-repair optimization has beneficial effects on transgene expression, we grew CHO-SEAP WT and CHO-SEAP CMV::XRCC6 alongside in a long-term culture experiment, and compared SEAP titer at the beginning and the end. Prior to the start of the experiment, cells were cultured in 5 uM methotrexate (MTX) for 1 week to select for high SEAP expression, after which MTX was taken off the growth medium in half of the samples (FIG. 9c). MTX is a competitive inhibitor of dihydrofolate reductase, an essential metabolic enzyme, which is co-expressed with the transgenic SEAP locus (FIG. 9b).

[2] = test system: CHO-K1 cells; experiment: Karyotype analysis after long-term culture (multi-color FISH chromosome painting); settings: wild-type CHO-K1 cultured under permanent supplementation, 60 passages
Experimental: Metaphase spreads were prepared as previously described. Samples were labeled with multi-color DNA fluorescence in situ hybridization (FISH) probes (12× CHamster mFISH probe kit, MetaSystems) for spectral karyotyping as previously described. For karyotypic analyses, the most abundant karyotype across samples was defined as the representative (“main”) karyotype, and deviations from this karyotype were scored as a numerical alteration (whole-chromosomal aneuploidy) and/or structural alteration (inter-chromosomal rearrangement, visible deletion). Structurally aberrant karyotypes (FIG. 8b) were defined as karyotypes showing at least one structural deviation from the representative karyotype. Since unrepaired DSBs can lead to chromosomal aberrations, as mentioned above, we prepared karyotype samples of wildtype and engineered cell lines to analyze chromosomal aberrations on the single cell level. For this, both ATM+ and ATM+ PRKDC+ cell lines were cultured in parallel to the parental wildtype clone for a total of 60 passages (approx. 120 doublings) after which cells were arrested in mitosis, metaphase chromosomal spreads were prepared and stained with chromosome-specific probes (“chromosome painting”) to detect structural and numerical variations. […]

[3] = test system: CHO-K1 cells; experiment: EJ5-GFP double-strand break (DSB) reporter flow cytometry assay in CHO-K1
Excerpt: FIGS. 2A-2B show GFP-based double-strand break (DSB) reporter system. […] The spacer prevents the promoter from driving GFP expression. Step 2: Transient transfection with the DSB-inducing plasmid (B) induces two DSBs at the 5′ and 3′ ends of the spacer. Successfully transfected cells are identified through far-red fluorescence from miRFP670, fused to Cas9 (B). Step 3: Transfected cells that repair both DSBs properly keep the spacer in place and thus remain GFP-negative. Transfected cells that fail to repair both DSBs in time produce a large sequence loss, moving the GFP in proximity to the promoter, resulting in GFP expression. Thus, the fraction of GFP-positive cells among all transfected cells (far-red positive) serves as a read-out for the inefficiency of DSB repair. […]
The invention provides a tool to quantify double-strand break (DSB) repair in CHO. […] This reporter system comprises a GFP reading frame, separated from its promoter with a large (2 kb) spacer (FIG. 2A). […] Thus, this tool allows quantitative detection of DSB repair efficiency in living cells and is a powerful read-out for how restoration of individual DSB repair genes improves chromosome stability.
The EJ5-GFP reporter plasmid (addgene #44026) was linearized with XhoI and transfected into CHO-K1 and CHO-SEAP using electroporation (Neon, Thermo Fisher). […] Impaired DSB repair is detected by positive GFP expression. […]

SMILES | SEAP titer at end of long-term culture [1] | structural abnormalities in karyotype [2] | fraction of GFP+ cells (inefficiency of DSB repair) ([3]; CHO-K1 carrying GFP reporter, DSB-inducer transfection, ATM inhibitor 3 μM, FACS 24h after transfection) | GFP+ positive cells (compromised DSB repair) ([3]; CHO-K1 wildtype carrying EJ5-GFP, DSB-inducing plasmid, vs DMSO (Example 2, FIG. 5c))
CN(Cc1cnc2nc(N)nc(N)c2n1)c1ccc(C(=O)N[C@@H](CCC(=O)O)C(=O)O)cc1 [MTX, methotrexate] | no reduction in SEAP titer |  |  | 
C[C@@H]1CN(CC(=O)Nc2ccc3c(c2)Cc2cccc(-c4cc(=O)cc(N5CCOCC5)o4)c2S3)C[C@H](C)O1 [KU-60019] |  | massive increase in structural abnormalities | increases the fraction of GFP+ cells | significant increase in GFP+ positive cells
